Where a SMILES comes first, the peptide text is derived from it. Where no end group is shown, it is not given here.
How the values were obtained:
α-glucosidase [1] = experiment: α-glucosidase inhibition assay in vitro (pNPG substrate); type: biochemical; conditions: synthesized peptides; read-out: α-glucosidase Inhibitory Activity (IC50)
Protocol: (§1) The α-glucosidase inhibition activity was performed as described in the literature. In a 96-well enzyme plate, 40 μL of PBS buffer solution (pH 6.86, 0.1 M), 40 μL of sample solution, and 80 μL of α-glucosidase solution (0.2 U/mL) were added, mixed well, and reacted at 37 °C for 15 min. Next, 80 μL of 2.5 mM p-nitrophenyl-α-D-glucopyranoside (pNPG, 0.1 M, pH 6.8 in PBS) was added, mixed well, and reacted at 37 °C for 20 min. Finally, 150 μL of 0.2 M Na2CO3 solution was added to stop the reaction, which was then measured for absorbance values at 405 nm A1. Data were collected for three parallel experiments. (1) α-glucosidase inhibitory activity (%) = A0− (A 1− A2)/ A0 × 100% where A0 is the absorbance of an equal amount of PBS buffer in place of the sample; A2 is the absorbance of an equal amount of PBS buffer in place of the α-glucosidase solution and pNPG solution.

α-glucosidase [2] = experiment: Simulated gastrointestinal digestion in vitro, residual α-glucosidase inhibitory activity; type: in vitro ADME; conditions: 37 °C; for loss of α-glucosidase inhibitory activity after SGID: SGF 120 min then SIF 120 min; for loss of α-glucosidase inhibitory activity after simulated gastric digestion (SGD): SGF, 120 min
Protocol: as §1
The method of simulated gastrointestinal digestion (SGID) follows the previous method with slight modifications. Simulated gastric fluid (SGFs) and simulated intestinal fluid (SIFs) are both purchased from Shanghai Yuanye Biotechnology Co., Ltd., as previously mentioned. In brief, the synthesized peptide LLVLYYEY and LLLLPSYSEF was pre-dissolved to 4 mg/mL in pure water. LLVLYYEY and LLLLPSYSEF aqueous solution was mixed with SGFs (1:1, v/v) and digested at 37 °C for 120 min. SIFs (1:1, v/v) was then mixed and the mixture was incubated for 120 min. After 120 min of incubation, the pH was adjusted to 7 by NaOH (1M) to stop the simulated gastric digestion (SGD) phase; after 240 min of incubation the simulated intestinal digestion (SID) phase was stopped by a boiling water bath for 10 min.

Compound	IC50 (α-glucosidase [1]) [mM]	loss of α-glucosidase inhibitory activity after SGID (α-glucosidase [2])	loss of α-glucosidase inhibitory activity after simulated gastric digestion (SGD) (α-glucosidase [2])
CC(C)C[C@H](N)C(=O)N[C@@H](CS)C(=O)N[C@@H](CC(=O)O)C(=O)N[C@@H](CCC(N)=O)C(=O)N[C@@H](CS)C(=O)N1CCC[C@H]1C(=O)N1CCC[C@H]1C(=O)N[C@@H](Cc1c[nH]cn1)C(=O)N[C@@H](C)C(=O)O [LCDQCPPHA, Leu-Cys-Asp-Gln-Cys-Pro-Pro-His-Ala] (H-LCDQCPPHA-OH)	4.32	–	–
C[C@H](N)C(=O)N[C@H](C(=O)N[C@@H](CC(N)=O)C(=O)N1CCC[C@H]1C(=O)N1CCC[C@H]1C(=O)N[C@@H](CS)C(=O)N[C@@H](CS)C(=O)N[C@@H](CCC(N)=O)C(=O)N1CCC[C@H]1C(=O)O)[C@@H](C)O [ATNPPCCQP, Ala-Thr-Asn-Pro-Pro-Cys-Cys-Gln-Pro] (H-ATNPPCCQP-OH)	> 10	–	–
LLVLYYEY [LLVLYYEY, Leu-Leu-Val-Leu-Tyr-Tyr-Glu-Tyr]	–	significant loss of activity	essentially no loss
LLLLPSYSEF [LLLLPSYSEF, Leu-Leu-Leu-Leu-Pro-Ser-Tyr-Ser-Glu-Phe]	–	significant loss of activity	essentially no loss

— publication PMC9857891, “Optimization and Molecular Mechanism of Novel α-Glucosidase Inhibitory Peptides Derived from Camellia Seed Cake through Enzymatic Hydrolysis” (Foods, 2023)
